Source: patent US11712473B2, “Sensitizer-peptide conjugate” (UNIVERSITY OF ULSTER, priority 2017, dated 2023)
Entries after “also recorded” stand apart in the source; their conditions may differ. RB = Rose Bengal carboxylic acid derivative, attached to the N-terminus

How the values were obtained:
[1] = tested on: B16-F10-Luc2 melanoma tumour; test: PDT and SDT treatment of ectopic B16 melanoma tumours in SCID mice (Example 6); type: in vivo; settings: 100 μL of 100 μM by tail vein injection
Experimental: B16-F10-Luc2 cells (3×10^5) maintained as described in Example 3, were re-suspended in 100 μL of PBS and implanted into the rear dorsum of SCID mice. Four days after implantation tumour measurements were taken using calipers and tumour volume calculated from the geometric mean diameter using the equation: tumour volume=4πR^3/3. The animals were then randomly distributed into […] (n=5): Group 1 involved untreated animals; Group 2 treated with the RB-(KLAKLAK)2 (SEQ ID NO. 1) conjugate and no light; Group 3 treated with the RB-(KLAKLAK)2 (SEQ ID NO. 1) conjugate and light; Group 4 treated with the RB-(KLAKLAK)2 (SEQ ID NO. 1) conjugate and SDT, and Group 5 treated with RB and light. Following induction of anaesthesia (intraperitoneal injection of Hypnorm/Hypnovel), a 100 μL aliquot of PBS containing 100 μM RB or the RB-(KLAKLAK)2 (SEQ ID NO. 1) conjugate was administered by tail vein injection. Group 3 and Group 5: 30 minutes later tumours were exposed to white light for 3 min (68.4 J/cm^−2). […] After treatment, animals were allowed to recover from anaesthesia and tumour volume was monitored for 12 days with animals retreated using the same conditions on days 1, 2, 7 and 9. The % increase in tumour volume was calculated employing the pre-treatment measurements for each group. […]

[2] = tested on: B16-F10-Luc2 melanoma cells; test: PDT of B16 melanoma cells, MTT cell viability assay; type: cell-based, murine; settings: 2.5, 5.0, 10 μM, 3 h incubation, white light 1 min (22.8 J/cm^2), viability 24 h later
Experimental: (§1) Murine melanoma B16-F10 Luc-2 cells were maintained Dulbecco's Modified Eagle Media (DMEM) supplemented with 10% foetal bovine serum (FBS) and 1% penicillin streptomycin. The cells were incubated at 37° C. in a humidified 5% (v/v) CO2 atmosphere. Cells were seeded at a concentration of 4×10^3 cells per well in 96-well tissue culture plate for 24 hours. The medium was removed from each well and the cells incubated for 3 h with drug (100 μL) at concentrations of 2.5 μM, 5.0 μM and 10 μM in media. The drug solution was then removed and selected wells exposed to white light for 1 min (22.8 J/cm^2). Fresh media was then added to each of the wells and cell viability determined 24 h later using a MTT assay. Each experiment was repeated on 3 separate occasions with an n=6 on each occasion.

[3] = tested on: B16-F10-Luc2 melanoma cells; test: PDT of B16 melanoma cells, bioluminescent assay; type: cell-based, murine; settings: 2.5, 5.0, 10 μM plus white light (22.8 J/cm^2)
Experimental: as §1
For the bioluminescent assay, imaging was undertaken using a Xenogen IVIS-100 bioluminescence/fluorescence optical imaging system. Treatments were performed as described above. D-Luciferin at 1.5% w/w was then added to treated wells and bioluminescence intensity was quantified 5 min later using the IVIS-100 system and Living Image Software as per protocol (Caliper LifeSciences). Regions of interest (RoI) were drawn around the wells to evaluate the intensity of signal emitted and expressed photons/second (p/s).

[4] = tested on: B16-F10-Luc2 melanoma cells; test: SDT of B16 melanoma cells, MTT cell viability assay; type: cell-based, murine; settings: 2.5, 5.0, 10 μM, 3 hours incubation, ultrasound, viability 24 hours later
[5] = tested on: B16-F10-Luc2 melanoma tumour; test: PDT of B16 melanoma tumour growth in a mouse model (Example 5); type: in vivo, SCID mice; settings: for tumour growth / tumour size, as part of PDT: 100 μL of 100 μM by tail vein injection, white light 3 min (68.4 J/cm^-2) 30 minutes later, retreated days 1, 2, 7, 9
Experimental: In these studies all animals were treated humanely and in accordance with licensed procedures under the UK Animals (Scientific Procedures) Act 1986. B16-F10-Luc2 cells (3×10^5) maintained as described in Example 3, were re-suspended in 100 μL of PBS and implanted into the rear dorsum of SCID mice. Four days after implantation tumour measurements were taken using calipers and tumour volume calculated from the geometric mean diameter using the equation: tumour volume=4πR^3/3. The animals were then randomly distributed into four groups (n=5): Group 1 involved untreated animals; Group 2 treated with the RB-(KLAKLAK)2 (SEQ ID NO. 1) conjugate and no light; Group 3 treated with the RB-(KLAKLAK)2 (SEQ ID NO. 1) conjugate and light; Group 4 treated with RB and light. Following induction of anaesthesia (intraperitoneal injection of Hypnorm/Hypnovel), a 100 μL aliquot of PBS containing 100 μM RB or the RB-(KLAKLAK)2 (SEQ ID NO. 1) conjugate was administered by tail vein injection. Group 3 and Group 4: 30 minutes later tumours were exposed to white light for 3 min (68.4 J/cm^−2). After treatment, animals were allowed to recover from anaesthesia and tumour volume was monitored for 12 days with animals retreated using the same conditions on days 1, 2, 7 and 9. The % increase in tumour volume was calculated employing the pre-treatment measurements for each group. On day 13, the animals were euthanized and the tumours were removed for analysis.

[6] = tested on: MCF-7 invasive breast ductal carcinoma cells; test: PDT of MCF-7 breast cancer cells, MTT cell viability assay; type: cell-based, Human; settings: 0.05, 0.1, 0.5, 1 μM, 3 h incubation, white light 1 min (22.8 J/cm^2), viability 24 h later
Experimental: (§2) Human MCF-7 invasive breast ductal carcinoma cells were maintained Dulbecco's Modified Eagle Media (DMEM) supplemented with 10% foetal bovine serum (FBS) and 1% penicillin streptomycin. The cells were incubated at 37° C. in a humidified 5% (v/v) CO2 atmosphere. Cells were seeded at a concentration of 5×10^3 cells per well in 96-well tissue culture plate for 24 hours. The medium was removed from each well and the cells incubated for 3 h with drug (100 μL) at concentrations of 0.05 μM, 0.1 μM, 0.5 μM and 1 μM in media. The drug solution was then removed and the cells washed twice with PBS, fresh media was added and selected wells exposed to white light for 1 min (22.8 J/cm^2). Fresh media was then added to each of the wells and cell viability determined 24 h later using a MTT assay. Each experiment was repeated on 3 separate occasions with an n=6 on each occasion.

[7] = tested on: PANC-1 epithelioid carcinoma cells; test: PDT of PANC-1 pancreatic cancer cells, MTT cell viability assay; type: cell-based, Human; settings: 0.05, 0.1, 0.5, 1 μM, 3 h incubation, white light 1 min (22.8 J/cm^2), viability 24 h later
Experimental: as §2, with “PANC-1 epithelioid” for “MCF-7 invasive breast ductal”

Substance	tumour growth, as part of SDT ([1]; ultrasound 3.5 min, 3 W cm-2, 1 MHz, duty cycle 30%)	tumour growth, as part of PDT ([1]; white light 3 min (68.4 J/cm^-2) 30 minutes later)	cell viability (MTT), cytotoxic effect as part of PDT [2]	cell viability (MTT), cytotoxic effect as part of PDT ([2]; listed as RB-C(KLAKLAK)2 L enantiomer)	bioluminescent intensity relative to the control [3]	cell viability (MTT), cell killing as part of SDT [4]	tumour growth / tumour size, as part of PDT [5]	tumour growth / tumour size, as part of PDT ([5]; listed as conjugate of Rose Bengal and a peptide having the amino acid sequence defined by)	tumour growth, as part of SDT ([5]; as stated in the result sentence of Example 5)	cell viability (MTT), cell killing as part of PDT [6]	cell viability (MTT), cell killing as part of PDT [7]
RB-(KLAKLAK)2: conjugate of Rose Bengal and all-D peptide Lys-Leu-Ala-Lys-Leu-Ala-Lys-Lys-Leu-Ala-Lys-Leu-Ala-Lys (SEQ ID NO: 1), no cysteine (KLAKLAKKLAKLAK; not fully specified; Rose Bengal conjugate; all-D amino acids)	effectively reduced B16-F10-Luc2 melanoma tumour growth	effectively reduced B16-F10-Luc2 melanoma tumour growth; also recorded: PDT was superior									
RB-C(KLAKLAK)2: conjugate of Rose Bengal and peptide Cys-Lys-Leu-Ala-Lys-Leu-Ala-Lys-Lys-Leu-Ala-Lys-Leu-Ala-Lys (SEQ ID NO: 2) ({RB}-CKLAKLAKKLAKLAK-NH2; also: Rose Bengal conjugate, site not given here)			significantly better than photodynamic therapy using Rose Bengal alone; also recorded: effectively killed B16-F10-Luc2 melanoma cells	more potent cytotoxic effect than the RB-C(KLAKLAK)2 (SEQ ID NO. 2) D enantiomer	significant reduction in bioluminescence	effectively killed B16-F10-Luc2 melanoma cells	effectively reduced B16-F10-Luc2 melanoma tumour growth; also recorded: inhibited tumour growth to a greater extent	significant reduction in tumour size	effectively reduced B16-F10-Luc2 melanoma tumour growth	effectively killed MCF-7 invasive breast ductal carcinoma cells	effectively killed PANC-1 epithelioid carcinoma cells
RB-C(KLAKLAK): conjugate of Rose Bengal and peptide Cys-Lys-Leu-Ala-Lys-Leu-Ala-Lys (SEQ ID NO: 6) ({RB}-CKLAKLAK-NH2; not fully specified)										effectively killed MCF-7 invasive breast ductal carcinoma cells	effectively killed PANC-1 epithelioid carcinoma cells
